Assay [1] deals with T1, endogenous fungal MIPS (myo-inositol-1-phosphate synthase) (Thermochaetoides thermophila, UniProt G0SDP4).
T1 construct: gene CTHT_0052500; native full-length enzyme in SEC fraction of T. thermophila cell extract, no tag; 240 kDa homotetramer; residues 40-552 resolved
T1 sequence (G0SDP4 1-552): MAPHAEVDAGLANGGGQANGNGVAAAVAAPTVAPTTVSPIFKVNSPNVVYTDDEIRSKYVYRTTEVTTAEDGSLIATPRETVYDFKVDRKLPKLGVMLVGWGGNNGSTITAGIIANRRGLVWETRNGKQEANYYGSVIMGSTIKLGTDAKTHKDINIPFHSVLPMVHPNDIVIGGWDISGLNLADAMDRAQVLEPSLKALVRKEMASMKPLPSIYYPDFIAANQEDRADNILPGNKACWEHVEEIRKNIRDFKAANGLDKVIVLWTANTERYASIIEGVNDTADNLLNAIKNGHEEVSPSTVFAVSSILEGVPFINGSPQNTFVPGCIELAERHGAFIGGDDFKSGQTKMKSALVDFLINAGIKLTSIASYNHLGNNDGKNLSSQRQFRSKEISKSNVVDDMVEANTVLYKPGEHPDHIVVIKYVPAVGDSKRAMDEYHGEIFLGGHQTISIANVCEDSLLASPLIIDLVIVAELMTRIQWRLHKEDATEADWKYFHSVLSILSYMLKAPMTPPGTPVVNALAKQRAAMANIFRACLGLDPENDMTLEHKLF
The assay can be described thus: cryo-EM structure ([…] Å). The following applies: endogenously bound in all four active sites; native SEC fraction, pH 7.4; monovalent cation (probably K+) near NAD. The class given is binding.

Assay [2] concerns the target T1, endogenous fungal MIPS (myo-inositol-1-phosphate synthase). In words: phosphate release after periodate oxidation, molybdate, […] nm. The assay is classed as biochemical. The following applies: SEC fraction of cell extract; 5 mM G6P, 0.8 mM NAD+, 14 mM ammonium acetate, 2 mM DTT, 100 mM Tris-acetate pH 8, 37 °C.

Take `NC(=O)c1ccc[n+]([C@@H]2O[C@H](COP(=O)(O)OP(=O)(O)OC[C@H]3O[C@@H](n4cnc5c(N)ncnc54)[C@H](O)[C@@H]3O)[C@@H](O)[C@H]2O)c1` [NAD^+]: the “cryo-EM structure (2.48 Å)” value in assay [1] is “allowing for the unambiguous placement of the cofactor NAD (Fig. 2A)”. `O=P(O)(O)OC[C@H]1OC(O)[C@H](O)[C@@H](O)[C@@H]1O` (some centres unmarked) [glucose-6-phosphate]: the “phosphate release after periodate oxidation, molybdate, 820 nm” value in assay [2] is “probe the identified fractions for their capacity to convert G6P to IMP”.

Values taken from paper PMC11348189, “Disorder-to-order active site capping regulates the rate-limiting step of the inositol pathway” (Proceedings of the National Academy of Sciences of the …, 2024).
